Where two headings read alike, the source gives them in different places.
Legend:
orexin-1 = orexin-1 (Homo sapiens (Human), UniProt O43613); experiment: Intracellular calcium measurement (FLIPR), CHO cells expressing human orexin-1 receptor, 3 nM orexin-A; type: cell-based; conditions: read-out: IC50 OX1
Summary of the method: (§1)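 HBSS buffer with 0.1% BSA, NaHCO3 and 20 mM HEPES carries both compounds and agonist. Dye: fluo-4 AM (3 μM) with 5 mM probenecid. Compound exposure 120 min; peak signal scored against uninhibited orexin-A response.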

human orexin-2 receptor = human orexin-2 receptor (Homo sapiens (Human), UniProt O43614); experiment: Intracellular calcium measurement (FLIPR), CHO cells expressing human orexin-2 receptor, 3 nM orexin-A; type: cell-based; conditions: read-out: IC50 OX2
Summary of the method: as §1

[1] = CHO cells expressing human orexin-1 receptor, FLIPR, 3 nM orexin-A, geometric mean if determined several times
[2] = CHO cells expressing human orexin-2 receptor, FLIPR, 3 nM orexin-A, geometric mean if determined several times

Sequence of human orexin-2 receptor (O43614 whole entry): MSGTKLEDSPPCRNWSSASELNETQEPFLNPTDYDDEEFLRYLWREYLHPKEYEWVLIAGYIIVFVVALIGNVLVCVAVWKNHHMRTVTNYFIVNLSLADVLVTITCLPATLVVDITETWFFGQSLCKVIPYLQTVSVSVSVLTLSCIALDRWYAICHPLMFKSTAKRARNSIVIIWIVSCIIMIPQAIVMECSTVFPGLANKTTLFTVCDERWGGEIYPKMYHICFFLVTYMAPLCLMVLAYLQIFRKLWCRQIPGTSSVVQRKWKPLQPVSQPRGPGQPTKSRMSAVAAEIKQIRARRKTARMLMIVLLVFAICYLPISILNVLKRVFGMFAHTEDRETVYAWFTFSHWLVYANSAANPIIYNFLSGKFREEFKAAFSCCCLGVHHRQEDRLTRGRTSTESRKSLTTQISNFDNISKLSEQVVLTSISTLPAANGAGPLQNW
Sequence of orexin-1 (O43613 whole entry): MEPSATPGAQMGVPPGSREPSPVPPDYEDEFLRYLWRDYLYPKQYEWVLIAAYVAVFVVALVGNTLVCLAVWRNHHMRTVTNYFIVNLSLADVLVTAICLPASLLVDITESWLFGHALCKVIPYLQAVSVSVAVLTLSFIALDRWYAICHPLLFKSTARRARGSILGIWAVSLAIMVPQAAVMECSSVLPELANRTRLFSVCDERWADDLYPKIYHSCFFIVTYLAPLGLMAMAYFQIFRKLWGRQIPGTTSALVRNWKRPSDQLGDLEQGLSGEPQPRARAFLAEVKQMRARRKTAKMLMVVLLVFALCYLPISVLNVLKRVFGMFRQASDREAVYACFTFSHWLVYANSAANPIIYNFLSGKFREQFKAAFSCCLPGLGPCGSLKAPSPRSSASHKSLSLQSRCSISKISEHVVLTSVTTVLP

| IC50 (human orexin-2 receptor; [2]) | Compound | IC50 (orexin-1; [1]) | IC50 (human orexin-2 receptor) | IC50 (orexin-1) |
| --- | --- | --- | --- | --- |
|  | CCOc1c(F)cccc1-c1nc([C@@H]2CCCN2C(=O)c2cc(Cl)ccc2-n2nccn2)no1 [compound 327] | 38 nM | 4 nM |  |
| 4 nM | CCOc1c(F)cccc1-c1nc([C@@H]2CCCN2C(=O)c2ccc(C)cc2-n2nccn2)no1 [compound 328, {(S)-2-[5-(2-Ethoxy-3-fluoro-phenyl)-[1,2,4]oxadiazol-3-yl]-pyrrolidin-1-yl}-(4-methyl-2-[1,2,3]triazol-2-yl-phenyl)-methanone] | 16 nM |  |  |
|  | CCOc1c(F)cccc1-c1nc([C@@H]2CCCN2C(=O)c2ccc(Cl)cc2-n2nccn2)no1 [compound 329] | 16 nM | 4 nM |  |
| 2 nM | CCOc1ncccc1-c1nc([C@@H]2CCCN2C(=O)c2cc(C)ccc2-n2nccn2)no1 [compound 330, {(S)-2-[5-(2-Ethoxy-pyridin-3-yl)-[1,2,4]oxadiazol-3-yl]-pyrrolidin-1-yl}-(5-methyl-2-[1,2,3]triazol-2-yl-phenyl)-methanone] | 5 nM |  |  |
| 0.5 nM | CCOc1ncccc1-c1nc([C@@H]2CCCN2C(=O)c2cc(C)c(C)cc2-n2nccn2)no1 [compound 331, (4,5-Dimethyl-2-[1,2,3]triazol-2-yl-phenyl)-{(S)-2-[5-(2-ethoxy-pyridin-3-yl)-[1,2,4]oxadiazol-3-yl]-pyrrolidin-1-yl}-methanone] | 1 nM |  |  |
| 4 nM | CCOc1ncccc1-c1nc([C@@H]2CCCN2C(=O)c2cc(OC)c(F)cc2-n2nccn2)no1 [compound 332, {(S)-2-[5-(2-Ethoxy-pyridin-3-yl)-[1,2,4]oxadiazol-3-yl]-pyrrolidin-1-yl}-(4-fluoro-5-methoxy-2-[1,2,3]triazol-2-yl-phenyl)-methanone] | 99 nM |  |  |
| 17 nM | Cc1c(F)cccc1-c1nc([C@@H]2CCCN2C(=O)c2ccccc2-n2nccn2)no1 [compound 333, {(S)-2-[5-(3-Fluoro-2-methyl-phenyl)-[1,2,4]oxadiazol-3-yl]-pyrrolidin-1-yl}-(2-[1,2,3]triazol-2-yl-phenyl)-methanone] | 644 nM |  |  |
| 12 nM | COc1c(F)cccc1-c1nc([C@@H]2CCCN2C(=O)c2ccccc2-n2nccn2)no1 [compound 334, {(S)-2-[5-(3-Fluoro-2-methoxy-phenyl)-[1,2,4]oxadiazol-3-yl]-pyrrolidin-1-yl}-(2-[1,2,3]triazol-2-yl-phenyl)-methanone] | 320 nM |  |  |
| 4 nM | Cc1ccc(-n2nccn2)c(C(=O)N2CCC[C@H]2c2noc(-c3cccc(F)c3C)n2)c1 [compound 335, {(S)-2-[5-(3-Fluoro-2-methyl-phenyl)-[1,2,4]oxadiazol-3-yl]-pyrrolidin-1-yl}-(5-methyl-2-[1,2,3]triazol-2-yl-phenyl)-methanone] | 65 nM |  |  |
| 3 nM | COc1c(F)cccc1-c1nc([C@@H]2CCCN2C(=O)c2cc(C)ccc2-n2nccn2)no1 [compound 336, {(S)-2-[5-(3-Fluoro-2-methoxy-phenyl)-[1,2,4]oxadiazol-3-yl]-pyrrolidin-1-yl}-(5-methyl-2-[1,2,3]triazol-2-yl-phenyl)-methanone] | 45 nM |  |  |
| 14 nM | Cc1ccc(C(=O)N2CCC[C@H]2c2noc(-c3cccc(F)c3C)n2)c(-n2nccn2)c1 [compound 337, {(S)-2-[5-(3-Fluoro-2-methyl-phenyl)-[1,2,4]oxadiazol-3-yl]-pyrrolidin-1-yl}-(4-methyl-2-[1,2,3]triazol-2-yl-phenyl)-methanone] | 112 nM |  |  |
| 4 nM | COc1c(F)cccc1-c1nc([C@@H]2CCCN2C(=O)c2ccc(C)cc2-n2nccn2)no1 [compound 338, {(S)-2-[5-(3-Fluoro-2-methoxy-phenyl)-[1,2,4]oxadiazol-3-yl]-pyrrolidin-1-yl}-(4-methyl-2-[1,2,3]triazol-2-yl-phenyl)-methanone] | 27 nM |  |  |
| 2 nM | Cc1cc(C(=O)N2CCC[C@H]2c2noc(-c3cccc(F)c3C)n2)c(-n2nccn2)cc1C [compound 339, (4,5-Dimethyl-2-[1,2,3]triazol-2-yl-phenyl)-{(S)-2-[5-(3-fluoro-2-methyl-phenyl)-[1,2,4]oxadiazol-3-yl]-pyrrolidin-1-yl}-methanone] | 15 nM |  |  |
| 1 nM | COc1cc(C(=O)N2CCC[C@H]2c2noc(-c3cccc(F)c3OC)n2)c(-n2nccn2)cc1C [compound 341, {(S)-2-[5-(3-Fluoro-2-methoxy-phenyl)-[1,2,4]oxadiazol-3-yl]-pyrrolidin-1-yl}-(5-methoxy-4-methyl-2-[1,2,3]triazol-2-yl-phenyl)-methanone] | 13 nM |  |  |
|  | Cc1c(F)cccc1-c1nc([C@@H]2CCCN2C(=O)c2cc(Cl)ccc2-n2nccn2)no1 [compound 342] | 152 nM | 13 nM |  |
|  | COc1cc(C)cc(-c2nc([C@@H]3CCCN3C(=O)c3cc(OC)c(Cl)cc3-n3nccn3)no2)c1 [compound 352] | 19 nM | 4 nM |  |
| 7 nM | COc1cccc(-c2nc([C@@H]3CCCN3C(=O)c3cc(C)c(C)cc3-n3nccn3)no2)c1C [compound 356, (4,5-Dimethyl-2-[1,2,3]triazol-2-yl-phenyl)-{(S)-2-[5-(3-methoxy-2-methyl-phenyl)-[1,2,4]oxadiazol-3-yl]-pyrrolidin-1-yl}-methanone] | 57 nM |  |  |
|  | COc1c(Cl)cccc1-c1nc([C@@H]2CCCN2C(=O)c2cc(Cl)ccc2-n2nccn2)no1 [compound 357] | 81 nM | 17 nM |  |

| Compound | IC50 (human orexin-2 receptor; [2]) | IC50 (orexin-1; [1]) | IC50 (human orexin-2 receptor) | IC50 (orexin-1) |
| --- | --- | --- | --- | --- |
| COc1c(F)cccc1-c1nc([C@@H]2CCCN2C(=O)c2cc(Cl)ccc2-n2nccn2)no1 [compound 343] | 3 nM | 46 nM |  |  |
| CCOc1ncccc1-c1nc([C@@H]2CCCN2C(=O)c2ccc(C)cc2-n2nccn2)no1 [compound 345] | 11 nM | 33 nM |  |  |
| CCOc1ncccc1-c1nc([C@@H]2CCCN2C(=O)c2cc(Cl)ccc2-n2nccn2)no1 [compound 346] | 2 nM | 23 nM |  |  |
| COc1cc(C(=O)N2CCC[C@H]2c2noc(-c3cccc(Cl)c3OC)n2)c(-n2nccn2)cc1Cl [compound 347] | 1 nM | 15 nM |  |  |
| COc1cc(C(=O)N2CCC[C@H]2c2noc(-c3cccc(Cl)c3OC)n2)c(-n2nccn2)cc1C [compound 348] | 1 nM | 10 nM |  |  |
| COc1c(Cl)cccc1-c1nc([C@@H]2CCCN2C(=O)c2ccc(Cl)cc2-n2nccn2)no1 [compound 349] | 3 nM | 27 nM |  |  |
| COc1cc(C(=O)N2CCC[C@H]2c2noc(-c3cc(C)ccc3OC)n2)c(-n2nccn2)cc1Cl [compound 350] | 2 nM | 36 nM |  |  |
| COc1c(Cl)cccc1-c1nc([C@@H]2CCCN2C(=O)c2cc(C)ccc2-n2nccn2)no1 [compound 351] | 4 nM |  |  | 22 nM |
| COc1ccc(C)c(-c2nc([C@@H]3CCCN3C(=O)c3cc(OC)c(Cl)cc3-n3nccn3)no2)c1 [compound 353] | 5 nM | 54 nM |  |  |
| COc1c(Cl)cccc1-c1nc([C@@H]2CCCN2C(=O)c2ccc(C)cc2-n2nccn2)no1 [compound 354] | 5 nM | 12 nM |  |  |
| COc1cc(C(=O)N2CCC[C@H]2c2noc(-c3cccc(OC)c3C)n2)c(-n2nccn2)cc1Cl [compound 355] | 8 nM | 188 nM |  |  |

From patent publication US9493446B2, “Orexin receptor antagonists which are [ortho bi-(hetero-)aryl]-[2-(meta bi-(hetero-)aryl)-pyrrolidin-1-yl]-methanone derivatives” (Actelion Pharmaceuticals Ltd, priority 2012, dated 2016)
